Reference: patent publication US20190160257A1, “METHODS AND SYSTEMS FOR INHIBITING VASCULAR INFLAMMATION” (Mercator MedSystems, Inc., priority 2002, published 2019)
Entries after “also recorded” stand apart in the source; their conditions may differ.

Experiments:
[1] = two injections of 0.5 mL 5% silver nitrate per iliac artery
Excerpt: The animal was sacrificed according to approved protocol following the last injection. The arteries were removed and placed in 10% formalin without perfusion. 2 mm segments were embedded in paraffin, sectioned, and hematoxylin-eosin stained.

[2] = test system: patients with atherosclerotic lower extremity occlusive disease of the superficial femoral or popliteal arteries
Excerpt: Patients with TASC II A, B, and C disease of the superficial femoral and/or popliteal arteries were eligible for this study.
Unique identifier: NCT 01507558). The study design was a prospective, single-center, investigator-initiated study that enrolled consecutive patients who met eligibility requirements from the San Francisco Veteran Affairs Medical Center. This study was approved by the Committee for Human Research and the University of California Clinical and Translational Science Institute. Safety data and outcomes were monitored by a Data Safety and Monitoring Committee that convened on a quarterly basis or as needed.
The primary inclusion criteria were patients suffering from moderate to severe disabling claudication, ischemic rest pain, or minor tissue loss secondary to atherosclerotic lower extremity occlusive disease with TransAtlantic Inter-Society Consensus II […] lesions of the superficial femoral artery (SFA) or popliteal arteries.
The Bullfrog® Micro-Infusion is a rapid-exchange, wire-guided catheter with a balloon-sheathed 0.9-mm-long, 35-gauge (140 μm diameter) needle that delivers infusions to adventitial and perivascular tissues. It is Food and Drug Administration 510(k)-cleared for use in coronary and peripheral arteries. It is advanced through a 6F sheath over a 0.014-inch wire and can treat vessels from 3 to 6 mm in diameter. Three radio-opaque markers on the catheter allow for proper orientation of the needle. Using standard angioplasty inflation equipment, the balloon was inflated exposing the needle. When the balloon contacted the arterial wall opposite the needle tip, contact pressure forced the needle through the vessel wall and into the adventitia and perivascular tissues. The contact pressure of the balloon against the artery wall is limited to 2 atmospheres by a pressure release valve, which prevents damage to the artery wall. A mixture of infusate and contrast (4:1) was then delivered under fluoroscopic guidance into the adventitia. A test injection of 0.1 mL was made to confirm proper adventitial placement of the microinfusion needle tip. If resistance is met, or the test injection enters the blood stream, the balloon was deflated and the injection is attempted in another location by moving the catheter a few millimeters proximally or distally or rotating the catheter a few degrees. Once adventitia placement was confirmed, the remainder of the infusate was delivered at a rate of 1 mL/min. When the infusion was complete, the balloon was deflated, sheathing the needle, and allowing the catheter to be withdrawn. FIG. 12. Injections were administered approximately every 3 cm along the length of the treated arterial segment.
Patients not taking aspirin or clopidogrel before study enrollment received 325 mg of aspirin 12 hours prior the procedure. Postprocedure, patients were prescribed 81 mg/d of aspirin to be taken indefinitely and 75 mg/d of clopidogrel daily for 12 weeks. Vascular access was accomplished by either the contralateral or ipsilateral (anterograde) approach. Patients received a bolus of 5000 IU of heparin after insertion of the sheath in the common femoral artery, and their activated clotting time was kept above 250 seconds with additional heparin as needed. In the case of chronic total occlusions, all lesions were crossed subintimally with a glide wire and glide catheter (Terumo, Somerset, N.J.). After securing access across the lesion with a guidewire, the target lesion was treated according to physician preference. All patients were treated with balloon angioplasty.

[3] = test system: patients with superficial femoral or popliteal artery lesions; assay: DANCE Trial: circulating hsCRP and MCP-1 after revascularization with adventitial and perivascular dexamethasone; format: in vivo, human; conditions: baseline and 24 hours, about 1.6 mg per cm of lesion
Protocol: An additional study has enrolled 140 patients in the United States, meeting similar enrollment criteria as those in the 20-patient study described above. In these patients, approximately one-third of them have had blood draws right before a revascularization procedure of their superficial femoral or popliteal artery, and then again at 24±4 hours after their revascularization procedure. Arterial lesions in this study were at least 70% occlusive prior to revascularization and up to 15 cm in length. Revascularization therapy was performed with angioplasty, atherectomy, provisional stenting, or a combination thereof. […] The Schillinger 2002 published research would indicate the likelihood for a substantial rise in the hsCRP after revascularization therapy, and that this rise is linked to the rate of restenosis at 6 months following the revascularization procedure. The data from Schillinger 2002 and the 20-patient study described above (the DANCE-Pilot, in which 15 patients had baseline and 24 hour hsCRP levels examined) are plotted in FIG. 15, along with 41 patients from the larger 139 patient group (the DANCE Trial).
Additional data coming out of the interim analysis of the DANCE study includes the first 9 patients to have MCP-1 analyzed from their circulating blood at baseline and at 24 hours. […]

[4] = test system: graft-vein anastomosis and proximal vein of porcine AV grafts; conditions: pig, in vivo
Protocol: Fourteen days after graft implantation, percutaneous transluminal angioplasty (PTA) was performed (7 mm balloon, 16 atmosphere inflation pressure) at two sites per graft: across the graft-vein anastomosis (GVA) and in the proximal vein (PV). […] Infusions of 3 ml were always consistent between the 2 grafts in each animal.

[5] = Distribution of tacrolimus after periadventitial injection in swine coronary arteries, LC/MS of tissue; format: in vivo
Protocol: Distribution of a lipophilic compound (tacrolimus): Eight swine underwent angiography. […] The two remaining arteries served as untreated controls. An untreated heart was used as a negative control. At 48 hours arteries were dissected from the musculature and perivascular fat, cut into 5 mm sections and analyzed by Liquid Chromatography/Mass Spectrometry against tacrolimus calibration standards containing homogenized untreated porcine heart tissue.

[6] = pig, in vivo
Protocol: Injections were made to depths in the range from 0.8 mm to 1.2 mm One artery was treated intraluminally with 5 mL OGP to determine background vascular uptake. Animals were sacrificed 0.5-23 hr post-procedure following IACUC-approved protocol. After sacrifice, the LAD, RCA and LCx were removed, cut into 4-5 mm sections, which were frozen and cryosectioned. The slides were counter-stained with 0.1% Evan's Blue in PBS (5 min 37 C) to quench autofluorescence, observed with a UV microscope, and scored 0-4+. Representative sections were photographed.

O=[N+]([O-])[O-].[Ag+] [Silver Nitrate]
staining: site of delivery and diffusion [1]: delivery outside the external elastic lamina of the vessels and diffusion around the circumference

C[C@@H]1C[C@H]2[C@@H]3CCC4=CC(=O)C=C[C@]4(C)[C@@]3(F)[C@@H](O)C[C@]2(C)[C@@]1(O)C(=O)CO [dexamethasone]
patients with target lesion restenosis ([2]; 6 month follow up, PSV ratio >2.4 or occlusion by ultrasound): two
Rutherford classification scores versus pre-op baseline ([2]; 6 months, all patients but the one with target lesion restenosis): improved
mean Rutherford score ([2]; 6 months, preoperative 3.1±0.71, P<0.00001): 0.5±0.70
median Rutherford score ([2]; 6 months, preoperative median 3.0): 0
mean ABI versus baseline ([2]; all time points post procedure, FIG. 14): significantly improved
patients with only partial coverage by contrast distribution (grade=B) ([2]; assessed by fluoroscopy): one
subjects with complete circumferential coverage of the lesion with the infusate (grade=A) ([2]; assessed by fluoroscopy immediately after the infusion): 19 out of 20 subjects
patients with loss of primary patency (duplex ultrasound binary restenosis) ([2]; by 6 months, 20 patients): Two
anticipated rise of hsCRP ([2]; compared with Schillinger 2002): appears to be dampened
patients with target extremity stenosis not within the treated segment ([2]; follow up 381±181 days): Three
ABI measurements ([2]; one-year follow up, N=10, P<0.0001 vs baseline): 1.04±0.21
PSVR ([2]; one-year follow up, patients without index lesion restenosis, N=8): 1.1±0.6
CRP at 24 hours following the procedure ([2]; preoperative 6.9±8.5, P=0.14): 14.0 ± 23.1 mg/L
increase of CRP at 24 hours ([2]; versus preoperative, not statistically significant (P=0.14)): 103%
drug or device-related adverse events reported ([2]; within 30 days, acute hyperglycemia in one patient, controlled by insulin): one
effect on hsCRP inflammatory spike after revascularization ([3]; 41 patients, versus Schillinger 2002, FIG. 15): capable of reducing the inflammatory spike
change in circulating MCP-1 ([3]; first 9 patients, FIG. 16): marked drop in MCP-1; also recorded: a drop in MCP-1
adverse effect compared to placebo in the adventitia [4]: no observable adverse effect

C=CC[C@@H]1/C=C(\C)C[C@H](C)C[C@H](OC)[C@H]2O[C@@](O)(C(=O)C(=O)N3CCCC[C@H]3C(=O)O[C@H](/C(C)=C/[C@@H]3CC[C@@H](O)[C@H](OC)C3)[C@H](C)[C@@H](O)CC1=O)[C@H](C)C[C@@H]2OC [tacrolimus]
segments in which drug was detected ([5]; 48 hours, including side branches and uninjected arteries): 285/293
subjects with distribution to the entire coronary tree ([5]; periadventitial delivery, higher concentrations at injection sites): 8/8

Oregon Green® 488 paclitaxel [OGP]
circumferential staining [6]: staining was observed throughout the circumference of the artery
